# Measurements: PubChem BioAssay AID1963976 (Molecular Pharmacology Branch, DTP, NCI, 2024)
# Where “and” joins values, the source holds several entries; their conditions need not be identical. Identical values can stand only once.
# Tested on: 435261-313-R-J1-PDC tumor spheroid viability
# Test: Anticancer human tumor 435261-313-R-J1-PDC patient-derived colon adenocarcinoma cell line growth inhibition [PI3K]
# Settings: spheroids with HUVEC and MSC; for viability, T/C: stronger effect = lower value
# Source text: Combinatorial screen of targeted agents with the PI3K inhibitors inavolisib, alpelisib, duvelisib, and copanlisib in multi-cell type tumor spheroids
# A high-throughput screen of multi-cell type tumor spheroids was designed to identify active combinations of targeted small molecules and PI3K pathway inhibitors. Complex spheroids include a stromal component modeled by human endothelial cells (HUVEC) and fibroblasts modeled by human mesenchymal stem cells (MSCs). The concentration ranges selected for each drug and investigational agent were based upon clinically achievable concentrations if the clinical Cmax of the agent was known.
# Compounds. The drugs and investigational agents: inavolisib (NSC800729), alpelisib (NSC765974), duvelisib (NSC772469), copanlisib (NSC816437), ipatasertib (NSC767898), afuresertib (NSC778305), talazoparib (NSC767125), sapanisertib (NSC764658), selumetinib (NSC741078), tovorafenib (DAY101, NSC766906), vemurafenib (NSC761431), ravoxertinib (NSC781343), sotorasib (NSC818433), MRTX1133 (NSC 836407), abemaciclib (NSC 768073), palbociclib (NSC758247), venetoclax (NSC 766270), SY5609 (NSC837396), enzalutamide (NSC755605), and darolutamide (NSC825331), were obtained from the National Cancer Institute (NCI) Developmental Therapeutics Program Chemical Repository. The FDA-approved anticancer drug set is available from the NCI Developmental Therapeutics Program. […] The stock solutions were prepared in dimethyl sulfoxide (DMSO, Sigma-Aldrich, St. Louis, MO, cat. D2650) at 800-fold the tested concentration and stored at -70 degrees C prior to their use. All drugs and investigational agents were tested over a range starting from a high concentration at or near the clinical Cmax and decreasing in half-log increments. If the clinical Cmax for an agent had not been determined, the highest concentration tested was 10 microM.
# Cell Culture. All cells were maintained in an incubator at 37 degrees C and 5% CO2 with 95% humidity. The PDC lines were cultured according to standard operating procedures established by the NCI PDMR (https://pdmr.cancer.gov/sops/default.htm). All PDCs were thawed and cultured in Matrigel-coated flasks prepared with a working solution of 1X Ham's F-12 nutrient mix, without supplementation (Invitrogen, Waltham, MA, cat. 11765054), 100 U/mL penicillin-streptomycin (Invitrogen, cat. 15140122), and 2.5% Matrigel (Corning Inc., Corning, NY, cat. 354248) for the first three passages. The 354836-022-R-J1-PDC, 475296-252-R-J1-PDC, and 997726-040-R-J2-PDC lines were cultured in 6A media, which includes advanced DMEM/F-12 (Thermo Fisher Scientific, cat. 12634028), 10 mM HEPES (Thermo Fisher Scientific, cat. 15630080), 1X GlutaMAX supplement (Thermo Fisher Scientific, cat. 35050061), 0.1 mg/mL primocin (InvivoGen, San Diego, CA, cat. ant-pm-2), 10% defined fetal bovine serum, heat inactivated (HyClone Laboratories Inc., Logan, UT, cat. SH30070.03HI), 50% L-WRN conditioned media (ATCC, cat. CRL-3276), 1.25 mM N-Acetyl-L-cysteine (Sigma-Aldrich, cat. A9165), 10 mM nicotinamide (Sigma-Aldrich, cat. N0636), 1X B-27 supplement (Thermo Fisher Scientific, cat. 17504044), 1X N-2 supplement (Thermo Fisher Scientific, cat. 17502048), and 10 microM Y-27632 dihydrochloride (Tocris Bioscience, Bristol, United Kingdom, cat. 1254). The 624824-186-R-J2-PDC line was cultured in 6C/Colon 1B media, which includes all 6A media components plus 50 ng/mL human EGF recombinant protein (Thermo Fisher Scientific, cat. PHG0311). […]
# 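Further: spheroids exposed to compounds for 7 days.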
structure (smiles),measurement,setting,value
CC(C)NCC(C(=O)N1CCN(c2ncnc3c2C(C)CC3O)CC1)c1ccc(Cl)cc1 (centres undefined) + CC(Nc1ccc2c(c1)OCCn1cc(N3C(=O)OCC3C(F)F)nc1-2)C(N)=O,IC50,"curve of first compound, second compound 0.00316 µM",5.07 µM
same,IC50,"curve of first compound, second compound 0.01 µM",3.75 µM
same,IC50,"curve of first compound, second compound 0.0316 µM",2.48 µM
same,IC50,"curve of first compound, second compound 0.1 µM",< 0.0316 µM
same,IC50,"curve of first compound, second compound 0.316 µM",< 0.0316 µM
same,IC50,"curve of first compound, second compound 1 µM",< 0.0316 µM
same,"viability, T/C","second compound 0.00316 µM, first compound 0.0316 µM",76.3%
same,"viability, T/C","second compound 0.00316 µM, first compound 0.1 µM",77.9%
same,"viability, T/C","second compound 0.00316 µM, first compound 0.316 µM",69.5%
same,"viability, T/C","second compound 0.00316 µM, first compound 1 µM",72.3%
same,"viability, T/C","second compound 0.00316 µM, first compound 3.16 µM",63.6%
same,"viability, T/C","second compound 0.00316 µM, first compound 10 µM",31.3%
same,"viability, T/C","second compound 0.01 µM, first compound 0.0316 µM",88.2%
same,"viability, T/C","second compound 0.01 µM, first compound 0.1 µM",94.7%
same,"viability, T/C","second compound 0.01 µM, first compound 0.316 µM",73.6%
same,"viability, T/C","second compound 0.01 µM, first compound 1 µM",80.1%
same,"viability, T/C","second compound 0.01 µM, first compound 3.16 µM",54.7%
same,"viability, T/C","second compound 0.01 µM, first compound 10 µM",18.2%
same,"viability, T/C","second compound 0.0316 µM, first compound 0.0316 µM",62.3%
same,"viability, T/C","second compound 0.0316 µM, first compound 0.1 µM",56.3%
same,"viability, T/C","second compound 0.0316 µM, first compound 0.316 µM",50.5%
same,"viability, T/C","second compound 0.0316 µM, first compound 1 µM",60.8%
same,"viability, T/C","second compound 0.0316 µM, first compound 3.16 µM",47.3%
same,"viability, T/C","second compound 0.0316 µM, first compound 10 µM",13.3%
same,"viability, T/C","second compound 0.1 µM, first compound 0.0316 µM",48.6%
same,"viability, T/C","second compound 0.1 µM, first compound 0.1 µM",28.7%
same,"viability, T/C","second compound 0.1 µM, first compound 0.316 µM",34.8%
same,"viability, T/C","second compound 0.1 µM, first compound 1 µM",31.8%
same,"viability, T/C","second compound 0.1 µM, first compound 3.16 µM",24.7%
same,"viability, T/C","second compound 0.1 µM, first compound 10 µM",12.6%
same,"viability, T/C","second compound 0.316 µM, first compound 0.0316 µM",21%
same,"viability, T/C","second compound 0.316 µM, first compound 0.1 µM",21.4%
same,"viability, T/C","second compound 0.316 µM, first compound 0.316 µM",18.4%
same,"viability, T/C","second compound 0.316 µM, first compound 1 µM",18.7%
same,"viability, T/C","second compound 0.316 µM, first compound 3.16 µM",19%
same,"viability, T/C","second compound 0.316 µM, first compound 10 µM",10.6%
same,"viability, T/C","second compound 1 µM, first compound 0.0316 µM",18.1%
same,"viability, T/C","second compound 1 µM, first compound 0.1 µM",15.9%
same,"viability, T/C","second compound 1 µM, first compound 0.316 µM",13.8%
same,"viability, T/C","second compound 1 µM, first compound 1 µM",18.4%
same,"viability, T/C","second compound 1 µM, first compound 3.16 µM",17.1%
same,"viability, T/C","second compound 1 µM, first compound 10 µM",10.8%
CC(Cn1ccc(-c2ccc(C#N)c(Cl)c2)n1)NC(=O)c1cc(C(C)O)[nH]n1 (centres undefined),"viability, T/C",compound 0.0316 µM,97.2% and 88.6% and 70.7%
same,"viability, T/C",compound 0.1 µM,108% and 96.9% and 109%
same,"viability, T/C",compound 0.316 µM,130% and 117% and 107%
same,"viability, T/C",compound 1 µM,79.9% and 113% and 70.2%
same,"viability, T/C",compound 3.16 µM,110% and 105% and 108%
same,"viability, T/C",compound 10 µM,120% and 102% and 99.3%
same,IC50,curve of compound,> 10 µM
